Experimental data as given in patent US20200085839A1, “COMBINATION OF IMMUNOTHERAPEUTICS AND BISFLUOROALKYL-1,4-BENZODIAZEPINONE COMPOUNDS FOR TREATING LYMPHOMAS” (Ayala Pharmaceuticals Inc., priority 2018, published 2020).

What was measured:
Assay in all cases: Soluble (shed) BCMA by ELISA
Format in all cases: cell-based, human
[1] = test system: TUR cells (Histiocytic Lymphoma)
Procedure: (§1) […] cell lines, comprising 9 subtypes of lymphomas (see Table 1), were seeded at 1×10^5 cells/well in a total volume of 250 μl into a 96-well plate. The cells were cultured in RPMI medium supplemented with 10% FCS. Compound (22) was added to the cell cultures at a concentration of 10 μM, 1 μM, 100 nM, 10 nM, 1 nM, 100 pM, 10 pM, 1 pM, and 100 fM, and cell lines (8 from Hadassah Medical Center, 31 from Eurofins) were incubated at 37° C. for 24 hours with Compound (22). Following incubation, the cells were collected and BCMA levels were evaluated on the cell surface for cell-bound BCMA. Cells were stained with an anti-BCMA antibody (PE anti-human 19F2 BCMA, Biolegend), and cell surface BCMA levels were determined by FACS analysis (Mean Fluorescence Intensity. Soluble BCMA levels were analyzed by ELISA (Human BCMA/TNFRSF17 DuoSet kit: R&D Systems).

[2] = test system: SR cells (Anaplastic Large Cell Lymphoma)
Procedure: as §1

SUDHL-8 cells (DLBCL) = test system: SUDHL-8 cells (DLBCL)
Procedure: as §1

[3] = test system: H9 cells (Cutaneous T-cell Lymphoma)
Procedure: as §1

[4] = test system: MHHH-PREB-1 cells (B-cell Lymphoma)
Procedure: as §1

SUDHL-10 cells (DLBCL) = test system: SUDHL-10 cells (DLBCL)
Procedure: as §1

ST486 cells (DLBCL) = test system: ST486 cells (DLBCL)
Procedure: as §1

[5] = test system: Ramos cells (Burkitt's Lymphoma)
Procedure: as §1

[6] = test system: BCP-1 cells (B-cell Lymphoma)
Procedure: as §1

[7] = test system: JVM-2 cells (Mantle Cell Lymphoma)
Procedure: as §1

DB cells (DLBCL) = test system: DB cells (DLBCL)
Procedure: as §1

[8] = test system: REC-1 cells (Mantle Cell Lymphoma)
Procedure: as §1

[9] = test system: EB-2 cells (Burkitt's Lymphoma)
Procedure: as §1

[10] = test system: BC-1 cells (B-cell Lymphoma)
Procedure: as §1

[11] = test system: U937 cells (Histiocytic Lymphoma)
Procedure: as §1

[12] = test system: Namalwa cells (Burkitt's Lymphoma)
Procedure: as §1

[13] = test system: Jeko-1 cells (Mantle Cell Lymphoma)
Procedure: as §1

[14] = test system: EB-3 cells (Burkitt's Lymphoma)
Procedure: as §1

[15] = test system: CRO-AP2 cells (B-cell Lymphoma)
Procedure: as §1

DOHH-2 cells (DLBCL) = test system: DOHH-2 cells (DLBCL)
Procedure: as §1

[16] = test system: SUDHL-4 (Eurofins) cells (DLBCL)
Procedure: as §1

[17] = test system: Jiyoye cells (Burkitt's Lymphoma)
Procedure: as §1

[18] = Homo sapiens, read-out: Shed BCMA (pg/ml) EC50

## Cc1cccc2c1NC(=O)[C@@H](NC(=O)[C@H](CCC(F)(F)F)[C@H](CCC(F)(F)F)C(N)=O)N=C2c1cccc(F)c1 [Compound (22), (2R,3S)—N-((3S)-5-(3-fluorophenyl)-9-methyl-2-oxo-2,3-dihydro-1H-1,4-benzodiazepin-3-yl)-2,3-bis(3,3,3-trifluoropropyl)succinamide]
[1]
  Shed BCMA (pg/ml) % Reduction: BLQ
[1]; [18]
  EC50: > 10000 nM
[2]
  Shed BCMA (pg/ml) % Reduction: BLQ
[2]; [18]
  EC50: > 10000 nM
SUDHL-8 cells (DLBCL)
  Shed BCMA (pg/ml) % Reduction: 100%
SUDHL-8 cells (DLBCL); Homo sapiens, SU-DHL-8, read-out: Shed BCMA (pg/ml) EC50
  EC50: 0.5 nM
[3]
  Shed BCMA (pg/ml) % Reduction: BLQ
[3]; [18]
  EC50: > 10000 nM
[4]
  Shed BCMA (pg/ml) % Reduction: 97%
[4]; 1 nM, 24 h
  soluble BCMA 1 nM Compound (22): 227.3
[4]; 10 nM, 24 h
  soluble BCMA 10 nM Compound (22): 75.4
[4]; 100 nM, 24 h
  soluble BCMA 100 nM Compound (22): 60.1
[4]; Homo sapiens, B-cell, read-out: Shed BCMA (pg/ml) EC50
  EC50: 0.6 nM
SUDHL-10 cells (DLBCL)
  Shed BCMA (pg/ml) % Reduction: 97%
SUDHL-10 cells (DLBCL); Homo sapiens, SU-DHL10, read-out: Shed BCMA (pg/ml) EC50
  EC50: 0.9 nM
ST486 cells (DLBCL)
  Shed BCMA (pg/ml) % Reduction: 90%
ST486 cells (DLBCL); [18]
  EC50: 0.9 nM
[5]
  Shed BCMA (pg/ml) % Reduction: 76%
[5]; 1 nM, 24 h
  soluble BCMA 1 nM Compound (22): >2000
[5]; 10 nM, 24 h
  soluble BCMA 10 nM Compound (22): 613.3
[5]; 100 nM, 24 h
  soluble BCMA 100 nM Compound (22): 504.3
[5]; [18]
  EC50: 8.6 nM
[6]
  Shed BCMA (pg/ml) % Reduction: 94%
[6]; 1 nM, 24 h
  soluble BCMA 1 nM Compound (22): 1665.7
[6]; 10 nM, 24 h
  soluble BCMA 10 nM Compound (22): 1610 pg/mL
[6]; 100 nM, 24 h
  soluble BCMA 100 nM Compound (22): 460.6
[6]; FIG. 6B
  soluble BCMA: decreased soluble BCMA
[6]; [18]
  EC50: 48 nM
[7]
  Shed BCMA (pg/ml) % Reduction: 57%
[7]; [18]
  EC50: 75.3 nM
DB cells (DLBCL)
  Shed BCMA (pg/ml) % Reduction: 100%
DB cells (DLBCL); 1 nM, 24 h
  soluble BCMA 1 nM Compound (22): 270.5
DB cells (DLBCL); 10 nM, 24 h
  soluble BCMA 10 nM Compound (22): 40.5
DB cells (DLBCL); FIG. 9B
  soluble BCMA: decreased soluble BCMA
DB cells (DLBCL); [18]
  EC50: 1 nM
[8]
  Shed BCMA (pg/ml) % Reduction: BLQ
[8]; Homo sapiens, Rec1, read-out: Shed BCMA (pg/ml) EC50
  EC50: > 10000 nM
[9]; EB2, 1 nM, 24 h
  soluble BCMA 1 nM Compound (22): >2000
[9]; EB2, 10 nM, 24 h
  soluble BCMA 10 nM Compound (22): 597.7
[9]; EB2, 100 nM, 24 h
  soluble BCMA 100 nM Compound (22): 479.4
[9]; EB-2
  Shed BCMA (pg/ml) % Reduction: 70%
[9]; Homo sapiens, EB2, EB-2, read-out: Shed BCMA (pg/ml) EC50
  EC50: 7.1 nM
[10]
  Shed BCMA (pg/ml) % Reduction: 30%
[10]; 1 nM, 24 h
  soluble BCMA 1 nM Compound (22): >2000
[10]; 10 nM, 24 h
  soluble BCMA 10 nM Compound (22): 1841.6
[10]; 100 nM, 24 h
  soluble BCMA 100 nM Compound (22): 878.6
[10]; Homo sapiens, BC1, read-out: Shed BCMA (pg/ml) EC50
  EC50: 84 nM
[11]
  Shed BCMA (pg/ml) % Reduction: BLQ
[11]; Homo sapiens, U-937, read-out: Shed BCMA (pg/ml) EC50
  EC50: > 10000 nM
[12]; Homo sapiens, Namalwa, read-out: Shed BCMA (pg/ml) EC50
  EC50: 0.6 nM
[12]; NAMALWA, 10 nM, 24 h
  soluble BCMA 10 nM Compound (22): 66.6
[12]; Namalwa
  Shed BCMA (pg/ml) % Reduction: 95%
[12]; Namalwa, 1 nM, 24 h
  soluble BCMA 1 nM Compound (22): 87.5
[12]; Namalwa, 100 nM, 24 h
  soluble BCMA 100 nM Compound (22): 67.4
[13]; Homo sapiens, JeKo-1, read-out: Shed BCMA (pg/ml) EC50
  EC50: 1.1 nM
[13]; JEKO-1, 10 nM, 24 h
  soluble BCMA 10 nM Compound (22): 338
[13]; Jeko-1
  Shed BCMA (pg/ml) % Reduction: 76%
[13]; Jeko-1, 1 nM, 24 h
  soluble BCMA 1 nM Compound (22): 1245.6
[13]; Jeko-1, 100 nM, 24 h
  soluble BCMA 100 nM Compound (22): 305.6
[14]
  Shed BCMA (pg/ml) % Reduction: BLQ
[14]; [18]
  EC50: > 10000 nM
[15]
  Shed BCMA (pg/ml) % Reduction: 91%
[15]; 1 nM, 24 h
  soluble BCMA 1 nM Compound (22): 1895.3
[15]; 10 nM, 24 h
  soluble BCMA 10 nM Compound (22): 409.5
[15]; 100 nM, 24 h
  soluble BCMA 100 nM Compound (22): 126.1
[15]; [18]
  EC50: 4.8 nM
DOHH-2 cells (DLBCL)
  Shed BCMA (pg/ml) % Reduction: 93%
DOHH-2 cells (DLBCL); 1 nM, 24 h
  soluble BCMA 1 nM Compound (22): 1272.1
DOHH-2 cells (DLBCL); 10 nM, 24 h
  soluble BCMA 10 nM Compound (22): 136
DOHH-2 cells (DLBCL); 100 nM, 24 h
  soluble BCMA 100 nM Compound (22): 98.4
DOHH-2 cells (DLBCL); [18]
  EC50: 2.2 nM
[16]
  Shed BCMA (pg/ml) % Reduction: 87%
[16]; Homo sapiens, SU-DHL-4, read-out: Shed BCMA (pg/ml) EC50
  EC50: 6.6 nM
[17]; Homo sapiens, JIYOYE, read-out: Shed BCMA (pg/ml) EC50
  EC50: 2.3 nM
[17]; JIYOYE, 10 nM, 24 h
  soluble BCMA 10 nM Compound (22): 472.3
[17]; Jiyoye
  Shed BCMA (pg/ml) % Reduction: 81%
[17]; Jiyoye, 1 nM, 24 h
  soluble BCMA 1 nM Compound (22): 1707.7
[17]; Jiyoye, 100 nM, 24 h
  soluble BCMA 100 nM Compound (22): 373.1
[17]; Jiyoye, FIG. 8B
  soluble BCMA: decreased soluble BCMA
